Broadly, the inhibition is the drop in the measured response relative to a control, in per cent.

Data on one compound can be found in publication PMC10940605, “Design, synthesis and in vitro anticancer activity of some new lomefloxacin derivatives” (Scientific Reports, 2024).

What all share (assay): NCI-60 SRB screen
Common to all, as to assay type: cell-based

The subject of one test is MDA-MB-468. As to conditions: Homo sapiens; MDA-MB-468, 10^–5 Molar; read-out: Percent growth inhibition. Put shortly:
(§1)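 Testing used one 10^−5 M dose. Plates were incubated 48 h at 37 °C in 5% CO2 before fixation, staining with 0.4% (w/v) SRB in 1% acetic acid, solubilisation in trizma base and reading at […].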

The subject of a further test is SF-539. As to conditions: Homo sapiens; SF-539, 10^–5 Molar; read-out: Percent growth inhibition. The method in brief:
as §1

For another test, the system named is KM12. As to conditions: Homo sapiens; KM12, 10^–5 Molar; read-out: Percent growth inhibition. The method in brief:
(§2)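 Single-dose screen at 10^−5 M; cells grown in RPMI 1640 with 2 mM L-glutamine and FBS for 24 h, then exposed to compound for 48 h at 37 °C, 5% CO2. TCA-fixed, SRB-stained, absorbance read at […]; percentage growth inhibition calculated against time-zero and control wells.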

The subject of the next test is SF-295. As to conditions: Homo sapiens; SF-295, 10^–5 Molar; read-out: Percent growth inhibition. The method in brief: as §2
Another test deals with EKVX. As to conditions: Homo sapiens, 10^–5 Molar, read-out: Percent growth inhibition. Put shortly:
as §1

In a further test the test system is HOP-92. As to conditions: Homo sapiens; HOP-92, 10^–5 Molar; read-out: Percent growth inhibition. The method in brief: as §1
A further test relates to leukemia SR. As to conditions: Homo sapiens; SR, 10^–5 Molar; read-out: Percent growth inhibition. The method in brief: as §1
The test system of the next test is SF-268. As to conditions: Homo sapiens; SF-268, 10^–5 Molar; read-out: Percent growth inhibition. Put shortly: as §2
In a further test the test system is NCI-H522. As to conditions: Homo sapiens; NCI-H522, 10^–5 Molar; read-out: Percent growth inhibition. Put shortly: as §1
The test system of the next test is SN12C. As to conditions: Homo sapiens, 10^–5 Molar, read-out: Percent growth inhibition. The method in brief: as §2
For another test, the system named is NCI-H460. As to conditions: Homo sapiens; NCI-H460, 10^–5 Molar; read-out: Percent growth inhibition. Put shortly: as §1
In the next test the test system is MDA-MB-435. As to conditions: Homo sapiens; MDA-MB-435, 10^–5 Molar; read-out: Percent growth inhibition. The method in brief: as §2
The test system of a further test is SNB-75. As to conditions: Homo sapiens; SNB-75, 10^–5 Molar; read-out: Percent growth inhibition. Put shortly:
as §1

A further test relates to BT-549. As to conditions: Homo sapiens; BT-549, 10^–5 Molar; read-out: Percent growth inhibition. Put shortly:
as §1

The next test concerns 786-0. As to conditions: Homo sapiens; 786-0, 10^–5 Molar; read-out: Percent growth inhibition. Put shortly:
as §2

The subject of a further test is HCT-15. As to conditions: Homo sapiens; HCT-15, 10^–5 Molar; read-out: Percent growth inhibition. The method in brief:
as §1

Another test relates to SW-620. As to conditions: Homo sapiens; SW-620, 10^–5 Molar; read-out: Percent growth inhibition. The method in brief: as §1
For the next test, the system named is NCI-H322M. As to conditions: Homo sapiens, 10^–5 Molar, read-out: Percent growth inhibition. The method in brief:
as §1

The subject of the next test is NCI-H226. As to conditions: Homo sapiens; NCI-H226, 10^–5 Molar; read-out: Percent growth inhibition. The method in brief: as §2
Another test concerns A498. As to conditions: Homo sapiens; A498, 10^–5 Molar; read-out: Percent growth inhibition. Put shortly:
as §2

The subject of another test is HOP-62. As to conditions: Homo sapiens; HOP-62, 10^–5 Molar; read-out: Percent growth inhibition. Put shortly:
as §1

The next test concerns IGROV1. As to conditions: Homo sapiens, IGROV-1; IGROV1, 10^–5 Molar; read-out: Percent growth inhibition. The method in brief: as §1
Another test deals with T-47D. As to conditions: Homo sapiens, T47D, 10^–5 Molar, read-out: Percent growth inhibition. The method in brief:
as §2

Consider `CCn1cc(C(=O)NN=Cc2cccc(F)c2)c(=O)c2cc(F)c(N3CCNC(C)C3)c(F)c21` (centres unmarked) [Compound 3b, 1-Ethyl-6,8-difluoro-N′-(3-fluorobenzylidene)-7-(3-methylpiperazin-1-yl)-4-oxo-1,4-dihydroquinoline-3-carbohydrazide], for which the inhibition at 10 µM was 28.4% with MDA-MB-468; 105% in the test with SF-539; 127% in the test on KM12; 24.3% in the test on SF-295; 49.2% in the test with EKVX; 48.8% in the test on HOP-92. Also, the inhibition at 10 µM in the test on leukemia SR was 129%; in the test on SF-268 it was 60.6%; in the test with NCI-H522, 130%; in the test with SN12C, 104%; in the test on NCI-H460 it was 179%; in the test with MDA-MB-435, 175%. Also, the inhibition at 10 µM amounted to 9.9% with SNB-75; 17.1% in the test on BT-549; 140% in the test on 786-0; 182% in the test with HCT-15; 185% in the test on SW-620; 16.6% with NCI-H322M. Further, the inhibition at 10 µM worked out at 2.9% in the test with NCI-H226; 0.84% in the test with A498; 13.5% with HOP-62; 30.6% in the test on IGROV1; 27.7% in the test with T-47D.
